{"source": "paper PMC8371902", "about": "“Phase 1 study of M2698, a p70S6K/AKT dual inhibitor, in patients with advanced cancer” (Journal of Hematology & Oncology, 2021)", "system": "patients with advanced metastatic cancer", "excerpt": "In this phase 1 study, dose escalation was followed by expansion cohorts of once-daily, oral M2698 in continuous 21-day cycles. Primary objectives were to determine the maximum tolerated dose (MTD), dose-limiting toxicities (DLTs), and recommended phase 2 dose (RP2D). Secondary objectives were to assess safety and tolerability, pharmacokinetics (PK, including food effect) and antitumor activity. Pharmacodynamic biomarker assessments were exploratory. Treatment was discontinued if there was disease progression, toxicity or consent withdrawal.\nIn Part 1, M2698 monotherapy was investigated in a dose escalation with a food effect cohort. In Part 2, M2698 was investigated as monotherapy (expansion cohort) to further characterize safety, tolerability and pharmacokinetics, and assess antitumor activity in PAM + patients without confounding markers (exploratory).\nDose escalation analysis included all patients who experienced a DLT and those who received ≥ 80% of planned M2698 doses in cycle 1 without experiencing a DLT. Safety analysis included all patients who received ≥ 1 dose of M2698. PK analysis included all patients who received ≥ 1 dose of M2698 and had measurable plasma concentrations. Dose proportionality was tested using the power model (linear regression approach on the log -transformed scale).", "note": "Read-outs that look alike come from different tables or passages of the source."}
{"smiles": "NC(=O)c1cccc2c(N[C@H](CN3CCC3)c3ccc(Cl)c(C(F)(F)F)c3)ncnc12", "note": "[M2698]", "values": [{"measurement": "M2698-related TEAE: Ataxia", "setting": "75 mg n=4", "result": 0}, {"measurement": "M2698-related TEAE: Blood and lymphatic system disorders", "setting": "75 mg n=4", "result": 0}, {"measurement": "M2698-related TEAE: Blood creatine phosphokinase increased", "setting": "75 mg n=4", "result": 1}, {"measurement": "M2698-related TEAE: Blood creatinine increased", "setting": "75 mg n=4", "result": 0}, {"measurement": "M2698-related TEAE: Cardiac disorders", "setting": "75 mg n=4", "result": 0}, {"measurement": "M2698-related TEAE: Cognitive disorder", "setting": "75 mg n=4", "result": 0}, {"measurement": "M2698-related TEAE: Constipation", "setting": "75 mg n=4", "result": 0}, {"measurement": "M2698-related TEAE: Decreased appetite", "setting": "75 mg n=4", "result": 0}, {"measurement": "M2698-related TEAE: Delusion", "setting": "75 mg n=4", "result": 0}, {"measurement": "M2698-related TEAE: Depression", "setting": "75 mg n=4", "result": 0}, {"measurement": "M2698-related TEAE: Diarrhoea", "setting": "75 mg n=4", "result": 0}, {"measurement": "M2698-related TEAE: Diarrhoea haemorrhagic", "setting": "75 mg n=4", "result": 0}, {"measurement": "M2698-related TEAE: Dizziness", "setting": "75 mg n=4", "result": 0}, {"measurement": "M2698-related TEAE: Dry eye", "setting": "75 mg n=4", "result": 0}, {"measurement": "M2698-related TEAE: Dry mouth", "setting": "75 mg n=4", "result": 0}, {"measurement": "M2698-related TEAE: Dysgeusia", "setting": "75 mg n=4", "result": 1}, {"measurement": "M2698-related TEAE: Dyspepsia", "setting": "75 mg n=4", "result": 0}, {"measurement": "M2698-related TEAE: Dysphagia", "setting": "75 mg n=4", "result": 0}, {"measurement": "M2698-related TEAE: Energy increased", "setting": "75 mg n=4", "result": 0}, {"measurement": "M2698-related TEAE: Erythema", "setting": "75 mg n=4", "result": 0}, {"measurement": "M2698-related TEAE: Euphoric mood", "setting": "75 mg n=4", "result": 0}, {"measurement": "M2698-related TEAE: Eye disorders", "setting": "75 mg n=4", "result": 0}, {"measurement": "M2698-related TEAE: Fatigue", "setting": "75 mg n=4", "result": 0}, {"measurement": "M2698-related TEAE: Gamma-glutamyltransferase increased", "setting": "75 mg n=4", "result": 0}, {"measurement": "M2698-related TEAE: Gastrointestinal disorders", "setting": "75 mg n=4", "result": 0}, {"measurement": "M2698-related TEAE: Gastrooesophageal reflux disease", "setting": "75 mg n=4", "result": 0}, {"measurement": "M2698-related TEAE: General disorders and administration site conditions", "setting": "75 mg n=4", "result": 0}, {"measurement": "M2698-related TEAE: Headache", "setting": "75 mg n=4", "result": 0}, {"measurement": "M2698-related TEAE: Hyperhidrosis", "setting": "75 mg n=4", "result": 0}, {"measurement": "M2698-related TEAE: Hypokalaemia", "setting": "75 mg n=4", "result": 0}, {"measurement": "M2698-related TEAE: Hypomagnesaemia", "setting": "75 mg n=4", "result": 0}, {"measurement": "M2698-related TEAE: Insomnia", "setting": "75 mg n=4", "result": 0}, {"measurement": "M2698-related TEAE: Investigations", "setting": "75 mg n=4", "result": 1}, {"measurement": "M2698-related TEAE: Lipase increased", "setting": "75 mg n=4", "result": 0}, {"measurement": "M2698-related TEAE: Lymphopenia", "setting": "75 mg n=4", "result": 0}, {"measurement": "M2698-related TEAE: Metabolism and nutrition disorders", "setting": "75 mg n=4", "result": 0}, {"measurement": "M2698-related TEAE: Mucosal inflammation", "setting": "75 mg n=4", "result": 0}, {"measurement": "M2698-related TEAE: Nausea", "setting": "75 mg n=4", "result": 0}, {"measurement": "M2698-related TEAE: Nervous system disorders", "setting": "75 mg n=4", "result": 1}, {"measurement": "M2698-related TEAE: Nightmare", "setting": "75 mg n=4", "result": 1}, {"measurement": "M2698-related TEAE: Onychomadesis", "setting": "75 mg n=4", "result": 0}, {"measurement": "M2698-related TEAE: Paranoia", "setting": "75 mg n=4", "result": 0}, {"measurement": "M2698-related TEAE: Photosensitivity reaction", "setting": "75 mg n=4", "result": 0}, {"measurement": "M2698-related TEAE: Posterior reversible encephalopathy syndrome", "setting": "75 mg n=4", "result": 0}, {"measurement": "M2698-related TEAE: Pruritus generalised", "setting": "75 mg n=4", "result": 0}, {"measurement": "M2698-related TEAE: Psychiatric disorders", "setting": "75 mg n=4", "result": 1}, {"measurement": "M2698-related TEAE: Rash", "setting": "75 mg n=4", "result": 0}, {"measurement": "M2698-related TEAE: Rash maculo-papular", "setting": "75 mg n=4", "result": 1}, {"measurement": "M2698-related TEAE: Skin and subcutaneous tissue disorders", "setting": "75 mg n=4", "result": 1}, {"measurement": "M2698-related TEAE: Subjects with at least one event", "setting": "75 mg n=4", "result": 2}, {"measurement": "M2698-related TEAE: Transaminases increased", "setting": "75 mg n=4", "result": 0}, {"measurement": "M2698-related TEAE: Tremor", "setting": "75 mg n=4", "result": 0}, {"measurement": "M2698-related TEAE: Vision blurred", "setting": "75 mg n=4", "result": 0}, {"measurement": "M2698-related TEAE: Vomiting", "setting": "75 mg n=4", "result": 0}, {"measurement": "M2698-related TEAE: White blood cell count decreased", "setting": "75 mg n=4", "result": 0}, {"measurement": "M2698-related TEAE: Abnormal dreams", "setting": "110 mg n=4", "result": 0}, {"measurement": "M2698-related TEAE: Affect lability", "setting": "110 mg n=4", "result": 0}, {"measurement": "M2698-related TEAE: Alanine aminotransferase increased", "setting": "110 mg n=4", "result": 0}, {"measurement": "M2698-related TEAE: Amylase increased", "setting": "110 mg n=4", "result": 0}, {"measurement": "M2698-related TEAE: Anaemia", "setting": "110 mg n=4", "result": 0}, {"measurement": "M2698-related TEAE: Angina pectoris", "setting": "110 mg n=4", "result": 0}, {"measurement": "M2698-related TEAE: Anxiety", "setting": "110 mg n=4", "result": 0}, {"measurement": "M2698-related TEAE: Aphasia", "setting": "110 mg n=4", "result": 0}, {"measurement": "M2698-related TEAE: Ataxia", "setting": "110 mg n=4", "result": 0}, {"measurement": "M2698-related TEAE: Blood and lymphatic system disorders", "setting": "110 mg n=4", "result": 0}, {"measurement": "M2698-related TEAE: Blood creatine phosphokinase increased", "setting": "110 mg n=4", "result": 0}, {"measurement": "M2698-related TEAE: Blood creatinine increased", "setting": "110 mg n=4", "result": 0}, {"measurement": "M2698-related TEAE: Cardiac disorders", "setting": "110 mg n=4", "result": 0}, {"measurement": "M2698-related TEAE: Cognitive disorder", "setting": "110 mg n=4", "result": 0}, {"measurement": "M2698-related TEAE: Constipation", "setting": "110 mg n=4", "result": 1}, {"measurement": "M2698-related TEAE: Decreased appetite", "setting": "110 mg n=4", "result": 0}, {"measurement": "M2698-related TEAE: Delusion", "setting": "110 mg n=4", "result": 0}, {"measurement": "M2698-related TEAE: Depression", "setting": "110 mg n=4", "result": 0}, {"measurement": "M2698-related TEAE: Diarrhoea", "setting": "110 mg n=4", "result": 0}, {"measurement": "M2698-related TEAE: Diarrhoea haemorrhagic", "setting": "110 mg n=4", "result": 0}, {"measurement": "M2698-related TEAE: Dizziness", "setting": "110 mg n=4", "result": 0}, {"measurement": "M2698-related TEAE: Dry eye", "setting": "110 mg n=4", "result": 0}, {"measurement": "M2698-related TEAE: Dry mouth", "setting": "110 mg n=4", "result": 0}, {"measurement": "M2698-related TEAE: Dysgeusia", "setting": "110 mg n=4", "result": 0}, {"measurement": "M2698-related TEAE: Dyspepsia", "setting": "110 mg n=4", "result": 0}, {"measurement": "M2698-related TEAE: Dysphagia", "setting": "110 mg n=4", "result": 0}, {"measurement": "M2698-related TEAE: Energy increased", "setting": "110 mg n=4", "result": 0}, {"measurement": "M2698-related TEAE: Erythema", "setting": "110 mg n=4", "result": 0}, {"measurement": "M2698-related TEAE: Euphoric mood", "setting": "110 mg n=4", "result": 0}, {"measurement": "M2698-related TEAE: Eye disorders", "setting": "110 mg n=4", "result": 0}, {"measurement": "M2698-related TEAE: Fatigue", "setting": "110 mg n=4", "result": 0}, {"measurement": "M2698-related TEAE: Gamma-glutamyltransferase increased", "setting": "110 mg n=4", "result": 0}, {"measurement": "M2698-related TEAE: Gastrointestinal disorders", "setting": "110 mg n=4", "result": 1}, {"measurement": "M2698-related TEAE: Gastrooesophageal reflux disease", "setting": "110 mg n=4", "result": 0}, {"measurement": "M2698-related TEAE: General disorders and administration site conditions", "setting": "110 mg n=4", "result": 0}, {"measurement": "M2698-related TEAE: Headache", "setting": "110 mg n=4", "result": 0}, {"measurement": "M2698-related TEAE: Hyperhidrosis", "setting": "110 mg n=4", "result": 0}, {"measurement": "M2698-related TEAE: Hypokalaemia", "setting": "110 mg n=4", "result": 0}, {"measurement": "M2698-related TEAE: Hypomagnesaemia", "setting": "110 mg n=4", "result": 0}, {"measurement": "M2698-related TEAE: Insomnia", "setting": "110 mg n=4", "result": 0}, {"measurement": "M2698-related TEAE: Investigations", "setting": "110 mg n=4", "result": 0}, {"measurement": "M2698-related TEAE: Lipase increased", "setting": "110 mg n=4", "result": 0}, {"measurement": "M2698-related TEAE: Lymphopenia", "setting": "110 mg n=4", "result": 0}, {"measurement": "M2698-related TEAE: Metabolism and nutrition disorders", "setting": "110 mg n=4", "result": 0}]}
